Experiments:
[1] = test system: Lewis lung carcinoma; assay: Mean day of death (T/C), Lewis lung carcinoma in mice; format: in vivo, BD2F1 mice
Description: ; The efficacy of the drug, F3methyldC followed the pattern of Selectivity. The mean day of death (Tumor/Control) was 1.3, 1.6, 1.8 and 1.4 for 10, 25, 50 and 75 mg/kg H4U, respectively. […].

[2] = test system: mouse tumor; details: in vivo; cited from earlier work
[3] = test system: PC-3 cells; assay: Cytotoxicity (clonogenic) assay, 72 h drug exposure; format: cell-based, human
Description: (§1) Toxicity and Radiation Studies: The methods using clonogenic assays described by Perez and Greer (Int. J. Rad. Oncology: Biology, Physics 12, 1523-1527, 1986—incorporated herein by reference in its entirety) were followed.
Cytotoxicity Assays: 5×10^5 cells were plated in 60 mm tissue culture dishes in 5 mls of the optimal growth media for the particular cell line in an humidified 95% air-5% CO2 atmosphere. The plates were incubated for 18-20 hours to allow for attachment and log-phase growth to begin. At the end of this period the growth medium was aspirated and replaced with […]. Four times (4×) concentrated solutions were prepared and then 1 ml was added to the plates; and growth media were then added to a total volume of […]. The plates were then incubated for 72 hours and the cells harvested by trypsinization. The cells were then serially diluted in growth medium replated into 60 mm dishes and incubated for 6 to 9 days depending on the cell line. After this incubation period, the media was aspirated and the colonies were washed twice with a PBS solution. The colonies were then stained with a 0.2% crystal violet-20% ethanol solution for 5 min. the stain was removed, the colonies were washed and air dried. A viable colony was one consisting of 25 or more normal appearing cells and was considered to have arisen from a single cell. The colonies were counted under a dissecting microscope. Two to three dilutions for every condition were plated. Dishes containing 30-300 colonies were used in the calculation and all conditions were done in duplicate.

[4] = test system: PC-3 cells; assay: Radiosensitization of cells in culture (Cobalt 60, clonogenic survival); format: cell-based, human; details: PC-3 cells
Description: as §1
Irradiation of Cells in Culture: 2×10^5 cells were plated in 25 cm^2 flasks and grown for 18 hr at 37° C. in a humidified 5% CO2 atmosphere. The medium was then removed and replaced with medium containing the appropriate drug concentrations and incubated for 72 hrs then removed and the cell monolayers were rinsed twice with PBS. The flasks were then filled with 50 ml of radiation medium (3 parts RPMI 1640 and 7 parts PBS plus antibiotics and glutamine). The cells were then irradiated using a Cobalt 60 irradiator. The cell monolayers were placed 35 cm away from the source and irradiated for appropriate times according to the dose rate. The dose rate was calculated, at this distance, using ionization chambers. Attenuation factors due to the polystyrene flask (0.9923) and the medium (H2O=0.8715) were considered in calculating the exposure period.
After irradiation the cell monolayers were washed again, replenished with growth media, and incubated for 1½ hours. The cell monolayers were then trypsinized and the cells serially diluted, appropriate dilutions were then plated in 60 mm dishes and incubated for 7-9 days at 37° C. and CO2. At the end of this period the cells were stained with crystal violet and the colony forming ability determined by considering 25 or more normal cells as a viable colony. The viabilities were determined and the appropriate survival curves derived. All conditions were done in duplicate using two flasks treated under identical conditions.

[5] = biological target: deoxycytidine kinase (dCK) (Homo sapiens, UniProt P27707); assay: Competition assay for substrates of deoxycytidine kinase, crude extracts of PC-3 cells
Chain of deoxycytidine kinase (dCK) (P27707 whole entry): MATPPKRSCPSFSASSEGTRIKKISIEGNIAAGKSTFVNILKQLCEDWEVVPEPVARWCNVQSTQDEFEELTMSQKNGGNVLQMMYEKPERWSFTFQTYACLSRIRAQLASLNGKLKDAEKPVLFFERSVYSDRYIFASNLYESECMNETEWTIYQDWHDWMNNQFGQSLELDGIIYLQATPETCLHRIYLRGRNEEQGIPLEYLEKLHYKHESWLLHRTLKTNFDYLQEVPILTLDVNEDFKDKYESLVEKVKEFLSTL

[6] = biological target: T1, cytidine deaminase (CD) (Homo sapiens, UniProt P32320); assay: Competition assay for substrates of cytidine deaminase, crude extracts of PC-3 cells; format: biochemical; details: competition studies, human tumor cell extracts
T1 construct: Crude extracts of PC-3 cells in culture were prepared as described above; endogenous in cells; host or cells: PC-3 cells (crude extract supernatant)
T1 sequence (P32320 whole entry): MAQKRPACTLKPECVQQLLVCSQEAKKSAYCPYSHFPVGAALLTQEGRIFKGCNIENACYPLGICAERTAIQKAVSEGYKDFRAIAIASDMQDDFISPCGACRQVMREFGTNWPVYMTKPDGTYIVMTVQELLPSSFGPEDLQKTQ
Description: (§2) The crude enzyme extract (the supernatant of a 10 minute 14,000×g centrifugation) was then added. When cytidine was used as substrate, assays were conducted with benzacyclouridine to inhibit uridine phosphorylases. […] After 0, 15, and 30 minutes, the reaction was stopped and denatured protein removed as above for dC Kinase. […] Aliquots were then spotted on PE cellulose TLC sheets and the reactants separated with a solvent system composed of isopropanol:HCl:H2O (170:41:39). […] The nucleosides were visualized under U.V. light and the spots cut out and counted. […] Enzyme activity was expressed as nmole formed in 30 min/mg/protein.
Competition assays to determine Substrate Specificity: Crude extracts of PC-3 cells in culture were prepared as described above. Two concentrations of crude extract were utilized for the studies as determined from the analysis of protein.
The assays were run for 0, 15, and 30 minutes.

[7] = biological target: T2, cytidine deaminase (Mus musculus, UniProt P56389); assay: Inhibition of tissue cytidine deaminase in mice bearing mammary adenocarcinoma-755 (FIG. 6); format: in vivo, BD2F1 mice; details: H4U 25 mg/kg or deoxytetrahydrouridine 100 mg/kg i.p.; 60 min
T2 construct: from tissue; host or cells: Lewis lung carcinoma, liver, spleen, intestine, bone marrow, kidney, skeletal muscle and serum of BD2F1 mice
T2 sequence (P56389 whole entry): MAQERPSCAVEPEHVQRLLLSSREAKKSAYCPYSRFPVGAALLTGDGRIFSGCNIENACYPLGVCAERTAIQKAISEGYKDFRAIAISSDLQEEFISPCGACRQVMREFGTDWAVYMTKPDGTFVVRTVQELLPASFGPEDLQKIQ
Description: as §2

[8] = biological target: T3, dCMP deaminase (Mus musculus, UniProt Q8K2D6); assay: Inhibition of dCMP deaminase after H4U in mice bearing Lewis lung carcinoma; format: in vivo, BD2F1 mice; details: mouse, in vivo
T3 construct: deaminase activity of tumor, serum and other tissues assayed 30 min after H4U; from tissue; host or cells: tumor (Lewis lung carcinoma), serum and other tissues of BD2F1 mice
T3 sequence (Q8K2D6 1-178): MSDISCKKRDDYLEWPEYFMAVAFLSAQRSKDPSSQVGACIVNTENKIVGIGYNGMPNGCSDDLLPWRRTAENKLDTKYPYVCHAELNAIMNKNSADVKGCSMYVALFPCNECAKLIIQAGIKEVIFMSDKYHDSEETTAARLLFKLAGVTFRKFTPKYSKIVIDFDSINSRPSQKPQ
Description: dCMP Deaminase Activity: The crude enzyme extract was prepared as described in A. The reaction was carried out in 60 mM Tris HCl, pH 8.0, and 50 μm dCTP, 2.5 mM MgCl2, 30 mM NaF, and 80% H2O to which dCMP (^3H labeled) was added to a final concentration of 2 mM; 20 μl of enzyme extract was added to initiate the reaction giving a total volume of […]. […] A control lacking enzyme was included with each determination. The reaction was terminated as described above in at 0, 30 and 45 minutes and denatured protein was removed by centrifugation as described above. To 10 μl of the supernatant, 6 μl of a 0.03M solution of the carrier nucleotides, dCMP and dUMP were added so that the reactants can be visualized under a UV lamp. Chromatographic isolation of the products was carried out in 2 different solvent systems: A) Baker DEAE Cellulose TLC sheets in 0.01N HCl for 35 min. […] Each appropriate area of the thin layer sheets (where dCMP and dUMP were separated), were cut into small pieces and placed in separate vials and extracted with 1N HCl (1 ml) for 30 minutes. Scintillation cocktail was added (5 ml) to the vials which were vortexed prior to counting. The specific activity was expressed as nmoles/min/mg protein.

Nc1nc(=O)n([C@H]2C[C@H](O)[C@@H](CO)O2)cc1C(F)(F)F [5-TrifluoromethyldC, 5-Trifluoromethyl-2′-deoxycytidine]
MDD T/C (mean day of death) ([1]; H4U 10 mg/kg with F3methyldC): 1.3 | MDD T/C (mean day of death) ([1]; H4U 25 mg/kg with F3methyldC, mean ± SE): 1.6 | MDD T/C (mean day of death) ([1]; H4U 50 mg/kg with F3methyldC, mean ± SE): 1.8 | MDD T/C (mean day of death) ([1]; H4U 75 mg/kg with F3methyldC): 1.4 | efficacy vs a mouse tumor compared with other fluorinated pyrimidines (in words) [2]: superior to 5-FUra, 5-FdU and 5-F3dT | effect of thymidine on cytotoxicity (in words) [3]: antagonized by thymidine | effect of tetrahydrouridine (H4U) on cytotoxicity / viability (in words) ([3]; human, 72 h): can be antagonized by H4U | % S ([3]; nucleoside 1 μM, H4U 5 μM): 67% | % S ([3]; nucleoside 1 μM, H4U 100 μM): 100% | % S ([3]; nucleoside 1 μM, H4U 1500 μM): 100% | % S ([3]; nucleoside 10 μM, H4U 5 μM): 0.1% | % S ([3]; nucleoside 10 μM, H4U 100 μM): 2% | % S ([3]; nucleoside 10 μM, H4U 1500 μM): 3.3% | radiosensitization of PC-3 cells (in words) [4]: not a radiosensitizer | substrate for deoxycytidine kinase (in words) ([5]; competition studies, human tumor cell extracts): poor substrate | inhibition at 250 µM ([5]; read-out: % Inhibition (dCK)): 0% | substrate for cytidine deaminase (in words) [6]: reasonably good substrate

O=C1NC(O)CCN1[C@H]1C[C@H](O)[C@@H](CO)O1 (stereo partly shown) [Deoxytetrahydrouridine]
selectivity of inhibition: tumor CD vs CD of normal tissues (in words) [7]: did not display a selective inhibition | selective inhibition of dCMP deaminase of normal tissue (in words) [8]: not selectively inhibited
